Test results: publication PMC3477293 (ACS chemical biology, 2012)
Where “and” joins values, the source holds several entries; their conditions need not be identical. Identical values can stand only once. Like-named read-outs stand apart in the source and are kept apart here.

What was measured:
AbaR [1] = target: T1, AbaR (Acinetobacter nosocomialis, UniProt A0A0N8YGA2); conditions: identical A. baumannii reporter strain; ref 43 (Garner et al.); cited from earlier work
AbaR [2] = target: T1, AbaR; experiment: AbaR agonism reporter gene; type: cell-based, Acinetobacter baumannii; conditions: for Activation [%]: AHLs at 100 µM, normalized to (R)-OH-dDHL at 100 µM (set to 100%), error ≤ ±10%; for EC50: EC50, AHLs over 200 pM – 200 µM; for AbaR agonism (in words): 100 µM
LasR = conditions: cited from earlier work
A. baumannii (ΔabaI) [3] = experiment: A. baumannii motility assay on soft agar; type: cell-based, Acinetobacter baumannii; conditions: for concentration preventing migration (comparable to ΔabaI mutant): (R)-OH-dDHL supplemented 0.3% soft agar; for IC50: Acinetobacter baumannii, read-out: IC50 value, motility inhibition
AbaR [4] = target: T1, AbaR; experiment: AbaR antagonism reporter gene; type: cell-based, Acinetobacter baumannii; conditions: for AbaR antagonistic activity (in words): primary screening data
A. baumannii (ΔabaI) [5] = experiment: A. baumannii biofilm assay; type: cell-based, Acinetobacter baumannii; conditions: AHL at 100 µM, crystal violet, 24 h; for inhibition of biofilm formation (in words): biofilm recovery with (R)-OH-dDHL; for reduction of biofilm recovery: (R)-OH-dDHL added
wild-type A. baumannii = experiment: A. baumannii biofilm assay; type: cell-based; conditions: Acinetobacter baumannii, read-out: inhibition of biofilm formation
[6] = AHLs over 10 nM – 100 µM against (R)-OH-dDHL at 0.70 µM

T1 sequence (A0A0N8YGA2 whole entry): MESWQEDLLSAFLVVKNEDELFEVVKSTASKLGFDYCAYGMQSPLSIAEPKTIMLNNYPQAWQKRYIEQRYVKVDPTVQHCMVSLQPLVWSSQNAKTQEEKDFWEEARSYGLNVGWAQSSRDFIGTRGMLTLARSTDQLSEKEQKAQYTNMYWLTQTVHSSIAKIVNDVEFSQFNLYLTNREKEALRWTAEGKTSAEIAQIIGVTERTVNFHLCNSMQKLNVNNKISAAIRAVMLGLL

For `CCCCCCCCC[C@@H](O)CC(=O)N[C@H]1CCOC1=O` [(R)-OH-dDHL, N-(3’-hydroxydodecanoyl)-L-HL, reference compound], the EC50 (AbaR [1]) is listed as 0.67 µM, the “Activation [%]” value (AbaR [2]) is listed as 100% and the EC50 (AbaR [2]) is listed as 0.7 µM and 0.699 µM. For the same compound, the “fold more active than (S)-OH-dDHL (AbaR activation)” value (AbaR [2]; from EC50 values) was ~ 40 fold.

In the case of `CCCCCCCCC[C@H](O)CC(=O)N[C@H]1CCOC1=O` [(S)-OH-dDHL, N-(3’-hydroxydodecanoyl)-L-HL], the EC50 (AbaR [1]) is listed as 0.82 µM, the “Activation [%]” value (AbaR [2]) is listed as 90% and the EC50 (AbaR [2]) is listed as 29 µM and 28.9 µM.

In the case of `CCCCCC(=O)CC(=O)N[C@H]1CCOC1=O` [Compound 1, 3-oxo-octanoyl-HL], the LasR inhibition (LasR) is given as 50%, the IC50 (LasR; read-out: IC50 (LasR)) is given as 0.11 µM and the “concentration preventing migration (comparable to ΔabaI mutant)” value (A. baumannii (ΔabaI) [3]) is given as “less than 20 µM”. The IC50 (AbaR [4]) was 2.91 µM, the inhibition at 100 µM (AbaR [4]) was 73% and the “AbaR agonism (in words)” value (AbaR [2]) was “limited AbaR agonism”. For the same compound, the “inhibition of biofilm formation (in words)” value (“inhibition … (in words)” for short) (A. baumannii (ΔabaI) [5]) was “inhibit biofilm formation to significant levels”.

For `CCCCCCCCCC(=O)CC(=O)N[C@H]1CCOC1=O` [Compound 2], the “Activation [%]” value (AbaR [2]) was 62% and the EC50 (AbaR [2]) was 7.57 µM.

`CCCCCCC(=O)N[C@H]1CCOC1=O` [Compound 4, heptanoyl-HL] gave an IC50 (AbaR [4]) of 13.7 µM and an inhibition at 100 µM (AbaR [4]) of 75%.

With `O=C(Cc1ccc(Br)cc1)N[C@H]1CCOC1=O` [Compound 8, 4-bromo PHL] the IC50 (AbaR [4]) was 7.83 µM and the inhibition at 100 µM (AbaR [4]) was 71%.

For `CCCCCCCC(=O)NC1CCOC1=O` (stereo not drawn) [Compound A3, octanoyl-HL], the “Inhibition [%]” value (AbaR [4]; AHLs at 100 µM against (R)-OH-dDHL at 0.70 µM, error ≤ ±10%) was 60%.

In the case of `CCCCCCCCCCCC(=O)NC1CCOC1=O` (stereo not drawn) [Compound A5, dodecanoyl HL], the “AbaR agonism (in words)” value (AbaR [2]) is reported as “no agonistic activity”.

With `CCCCCCCCCC(=O)NC1CCOC1=O` (stereo not drawn) [Compound A7, decanoyl-HL] the “AbaR agonism (in words)” value (AbaR [2]) was “limited AbaR agonism” and the “Activation [%]” value (AbaR [2]) was 3%.

With `CCCCCCCCCCCCCC(=O)NC1CCOC1=O` (stereo not drawn) [Compound A8, tetradecanoyl-HL] the “AbaR agonism (in words)” value (AbaR [2]) was “limited AbaR agonism” and the “Activation [%]” value (AbaR [2]) was 9%.

For `O=C(CCc1ccccc1)N[C@H]1CCOC1=O` [Compound B10, phenylpropanoyl HL], the IC50 (AbaR [4]) was 11 µM and the inhibition at 100 µM (AbaR [4]) was 72%.

In the case of `O=C(Cc1ccc(F)cc1)N[C@H]1CCOC1=O` [Compound C2], the IC50 (AbaR [4]; [6]) is reported as greater than 25 µM.

In the case of `O=C(Cc1ccc(Cl)cc1)N[C@H]1CCOC1=O` [Compound C5], the inhibition at 100 µM (AbaR [4]) is reported as 78% and the IC50 (AbaR [4]; [6]) is reported as 16.7 µM.

In the case of `O=C(Cc1cccc(Cl)c1)N[C@H]1CCOC1=O` [Compound C6, 3-chloro PHL], the IC50 (A. baumannii (ΔabaI) [3]) is reported as roughly 40 µM, the IC50 (AbaR [4]) is reported as 5.47 µM and the inhibition at 100 µM (AbaR [4]) is reported as 83%.

With `O=C(Cc1ccccc1Cl)N[C@H]1CCOC1=O` [Compound C7] the inhibition at 100 µM (AbaR [4]) was 83% and the IC50 (AbaR [4]; [6]) was 18.5 µM.

In the case of `O=C(Cc1cccc(Br)c1)N[C@H]1CCOC1=O` [Compound C8, 3-bromo PHL], the “concentration preventing migration (comparable to ΔabaI mutant)” value (A. baumannii (ΔabaI) [3]) is reported as “less than 20 µM”, the IC50 (A. baumannii (ΔabaI) [3]) is reported as roughly 7 µM and the IC50 (AbaR [4]) is reported as 5.06 µM. For the same compound, the inhibition at 100 µM (AbaR [4]) was 90%, the “AbaR antagonistic activity (in words)” value (AbaR [4]) was “moderately to strongly inhibitory” and the inhibition at 100 µM (wild-type A. baumannii) was roughly 40%. The “reduction of biofilm recovery” value (A. baumannii (ΔabaI) [5]) was ~ 40% and the “inhibition … (in words)” value (A. baumannii (ΔabaI) [5]) was “inhibit biofilm formation to significant levels”.

With `O=C(Cc1ccccc1Br)N[C@H]1CCOC1=O` [Compound C9] the IC50 (AbaR [4]) was 17.5 µM, the inhibition at 100 µM (AbaR [4]) was 97% and the “AbaR antagonistic activity (in words)” value (AbaR [4]) was “moderately to strongly inhibitory”.

`O=C(Cc1ccc(I)cc1)N[C@H]1CCOC1=O` [Compound C10, 4-iodo PHL] showed an IC50 (A. baumannii (ΔabaI) [3]) of roughly 70 µM, an IC50 (AbaR [4]) of 7.06 µM and an inhibition at 100 µM (AbaR [4]) of 91%. The inhibition at 100 µM (wild-type A. baumannii) was roughly 40%, the “reduction of biofilm recovery” value (A. baumannii (ΔabaI) [5]) was ~ 40% and the “inhibition … (in words)” value (A. baumannii (ΔabaI) [5]) was “inhibit biofilm formation to significant levels”.

For `O=C(Cc1cccc(I)c1)N[C@H]1CCOC1=O` [Compound C11, 3-iodo PHL], the “concentration preventing migration (comparable to ΔabaI mutant)” value (A. baumannii (ΔabaI) [3]) was “less than 20 µM”, the IC50 (A. baumannii (ΔabaI) [3]) was roughly 15 µM and the IC50 (AbaR [4]) was 2.32 µM. The inhibition at 100 µM (AbaR [4]) was 91%.

In the case of `O=C(Cc1ccccc1I)N[C@H]1CCOC1=O` [Compound C12, 2-iodo-PHL], the IC50 (A. baumannii (ΔabaI) [3]) is reported as roughly 40 µM, the IC50 (AbaR [4]) is reported as 6.13 µM and the inhibition at 100 µM (AbaR [4]) is reported as 80%.

Compound `O=C(Cc1cccc([N+](=O)[O-])c1)N[C@H]1CCOC1=O` [Compound C14, 3-nitro PHL] has an IC50 (A. baumannii (ΔabaI) [3]) of roughly 70 µM, an IC50 (AbaR [4]) of 8 µM and an inhibition at 100 µM (AbaR [4]) of 70%.
